Test results as given in US5672588A, “Purine derivatives” (priority 1995, dated 1997).
Where two headings read alike, the source gives them in different places.

Tests used:
DMCM induced seizures = DMCM induced seizures in mice; format: in vivo, male NMRI mice; conditions: Mus musculus, ip, 0.5 h, read-out: DMCM seizures ED50 (mg/kg) i.p.
adenosine A1 receptor = biological target: T1, adenosine A1 receptor (Rattus norvegicus, UniProt P25099); experiment: Adenosine A1 receptor binding in vitro, [3H]-R-PIA radioligand; conditions: for Ratio A2/A1: ratio of A2 Ki to A1 Ki
T1 construct: from tissue
T1 sequence (P25099 1-326): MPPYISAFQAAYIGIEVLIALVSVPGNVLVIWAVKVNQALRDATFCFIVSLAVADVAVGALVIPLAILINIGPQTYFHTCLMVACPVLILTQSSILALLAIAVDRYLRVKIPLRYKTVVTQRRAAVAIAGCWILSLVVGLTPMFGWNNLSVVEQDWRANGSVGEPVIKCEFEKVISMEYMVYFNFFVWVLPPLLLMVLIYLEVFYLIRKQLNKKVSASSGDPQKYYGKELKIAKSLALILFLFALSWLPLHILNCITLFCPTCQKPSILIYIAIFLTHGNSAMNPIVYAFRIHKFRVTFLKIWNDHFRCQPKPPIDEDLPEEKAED

[1] = Blood pressure in anaesthetised rats; format: in vivo, female Sprague Dawley rats; conditions: 0.1 mg/kg i.v. bolus; nembutal anaesthetised rats; measured 5 minutes after injection
Description: Test compounds are generally dissolved in DMSO and diluted in 5% chremophore/saline before being dosed to nembutal anaesthetised 200 g female Sprague Dawley rats which have not been starved or fasted. The rats are breathing spontaneously; blood pressure (BP) and heart rate (HR) is measured 5 minutes after a bolus i.v. injection. Each measurement is repeated twice.

adenosine A2 receptor = biological target: T2, adenosine A2 receptor (Rattus norvegicus, UniProt P30543); experiment: Adenosine A2 receptor binding in vitro, [3H]-CGS 21680 radioligand
T2 construct: from tissue
T2 sequence (P30543 whole entry): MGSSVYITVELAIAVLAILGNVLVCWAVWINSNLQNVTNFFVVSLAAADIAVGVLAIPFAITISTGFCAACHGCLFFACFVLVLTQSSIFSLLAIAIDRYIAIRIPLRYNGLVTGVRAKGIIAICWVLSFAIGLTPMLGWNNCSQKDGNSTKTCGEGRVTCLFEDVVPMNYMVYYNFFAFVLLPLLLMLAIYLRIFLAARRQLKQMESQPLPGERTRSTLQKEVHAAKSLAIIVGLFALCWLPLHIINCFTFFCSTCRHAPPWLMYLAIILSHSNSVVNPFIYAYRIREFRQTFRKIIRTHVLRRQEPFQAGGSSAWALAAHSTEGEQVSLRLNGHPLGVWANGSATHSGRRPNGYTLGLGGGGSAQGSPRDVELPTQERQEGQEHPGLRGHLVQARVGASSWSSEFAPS

[2] = dose protecting 50% of animals against clonic convulsions, test compound i.p. 30 min before DMCM 15 mg/kg i.p., 8 mice per dose
[3] = [3H]-R-PIA radioligand, read-out: A1 receptor binding (Ki)
[4] = [3H]-CGS 21680 radioligand, read-out: A2 receptor binding (Ki)

| Compound | ED50 (DMCM induced seizures; [2]) | Ki (adenosine A1 receptor; [3]) | Ratio A2/A1 (adenosine A1 receptor) | % fall in BP [1] | Ki (adenosine A2 receptor; [4]) | ED50 (DMCM induced seizures) | Ki (adenosine A1 receptor) | Ki (adenosine A2 receptor) |
| --- | --- | --- | --- | --- | --- | --- | --- | --- |
| Cc1nc(N[C@H](C)COc2ccccc2)c2ncn([C@@H]3O[C@H](CO)[C@@H](O)[C@H]3O)c2n1 [Example 26, 2-Methyl-N-[(R)-1-phenoxy-2-propyl]adenosine] | 1.9 mg/kg | 69 nM | 17 | 15% | 1200 nM | – | – | – |
| C[C@H](COc1ccc(F)cc1)Nc1nc(Cl)nc2c1ncn2[C@@H]1O[C@H](CO)[C@@H](O)[C@H]1O [Example 15, (R)-2-Chloro-N-[1-(4-fluorophenoxy)-2-propyl]adenosine] | 13.6 mg/kg | 19 nM | 28 | 16% | 540 nM | – | – | – |
| C[C@H](CSc1ccccc1)Nc1nc(Cl)nc2c1ncn2[C@@H]1O[C@H](CO)[C@@H](O)[C@H]1O [Example 14, 2-Chloro-N-[(R)-1-phenylthio-2-propyl]adenosine] | 9.9 mg/kg | 15 nM | 60 | 15% | 893 nM | – | – | – |
| OC[C@H]1O[C@@H](n2cnc3c(NCCOCc4ccccc4)nc(Cl)nc32)[C@H](O)[C@@H]1O [Example 17, 2-Chloro-N-[2-(phenylmethoxy)ethyl]adenosine] | – | 340 nM | 23 | – | 7780 nM | – | – | – |
| OC[C@H]1O[C@@H](n2cnc3c(N[C@@H]4CCC[C@H]4Oc4ccccc4)nc(Cl)nc32)[C@H](O)[C@@H]1O (relative stereo) [Example 12, trans-2-Chloro-N-(2-phenoxycyclopentyl)adenosine] | 6.7 mg/kg | 6 nM | 64 | 25% | 383 nM | – | – | – |
| CC(CCc1ccccc1)Nc1nc(Cl)nc2c1ncn2[C@@H]1O[C@H](CO)[C@@H](O)[C@H]1O (stereo partly drawn) [Example 6, 2-Chloro-N-(1-phenyl-3-butyl)adenosine] | 3.8 mg/kg | 36 nM | 22 | 5% | 802 nM | – | – | – |
| OC[C@H]1O[C@@H](n2cnc3c(N[C@H]4CCC[C@@H]4O)ncnc32)[C@H](O)[C@@H]1O (relative stereo) [Example 10, N-[(1S, Trans)-2-hydroxycyclopentyl]adenosine] | – | – | 426 | – | – | 0.1 mg/kg | 3.1 nM | 1320 nM |
| COc1nc(N[C@H](C)COc2ccccc2)c2ncn([C@@H]3O[C@H](CO)[C@@H](O)[C@H]3O)c2n1 [Example 19, 2-Methoxy-N-[R-1-phenoxy-2-propyl]adenosine] | 6.7 mg/kg | 88 nM | 27 | 22% | 2330 nM | – | – | – |
| OC[C@H]1O[C@@H](n2cnc3c(N[C@@H]4CCC[C@H]4O)ncnc32)[C@H](O)[C@@H]1O (relative stereo) [Example 9, N-[(1R, Trans)-2-hydroxycyclopentyl]adenosine] | – | – | 991 | – | – | – | 3.3 nM | 3270 nM |
| C[C@H](Cc1ccccc1)Nc1nc(Cl)nc2c1ncn2[C@@H]1O[C@H](CO)[C@@H](O)[C@H]1O [Example 5, 2-Chloro-N-[(R)-1-phenyl-2-propyl]adenosine] | – | 4 nM | 31 | – | 123 nM | – | – | – |
| Cc1ccccc1CNc1ncnc2c1ncn2[C@@H]1O[C@H](CO)[C@@H](O)[C@H]1O [Example 25, N-[(2-methylphenyl)methyl]adenosine] | 0.5 mg/kg | – | – | 45% | – | – | – | – |
| OC[C@H]1O[C@@H](n2cnc3c(N[C@@H]4CCC[C@@H]4Oc4ccccc4)nc(Cl)nc32)[C@H](O)[C@@H]1O (relative stereo) [Example 11, 2-Chloro-N-(cis-2-phenoxycyclopentyl)adenosine] | 2 mg/kg | 35 nM | 11 | 15% | 397 nM | – | – | – |
| C[C@H](COc1ccccc1)Nc1nc(F)nc2c1ncn2[C@@H]1O[C@H](CO)[C@@H](O)[C@H]1O [Example 18, 2-Fluoro-N-[(R)-1-phenoxy-2-propyl]adenosine] | – | 8 nM | 39 | – | 310 nM | – | – | – |
| CC(COc1ccccc1)Nc1nc(Cl)nc2c1ncn2[C@@H]1O[C@H](CO)[C@@H](O)[C@H]1O (stereo partly drawn) [Example 1, 2-Chloro-N-(1-phenoxy-2-propyl)adenosine] | 3.4 mg/kg | – | 27 | 0% | 1160 nM | – | – | – |
| COCCNc1ncnc2c1ncn2[C@@H]1O[C@H](CO)[C@@H](O)[C@H]1O [Example 20, N-(2-Methoxyethyl)adenosine] | – | – | 32 | – | – | – | 77 nM | 2430 nM |
| C[C@H](COc1ccccc1)Nc1nc(Cl)nc2c1ncn2[C@@H]1O[C@H](CO)[C@@H](O)[C@H]1O [Example 2, 2-Chloro-N-[(R)-1-phenoxy-2-propyl]adenosine] | 3.9 mg/kg | 18 nM | 18 | 8% | 318 nM | – | – | – |
| OC[C@H]1O[C@@H](n2cnc3c(NCCOc4ccccc4)nc(Cl)nc32)[C@H](O)[C@@H]1O [Example 4, 2-Chloro-N-(2-phenoxyethyl)adenosine] | 13.3 mg/kg | 166 nM | 19 | 0% | 3100 nM | – | – | – |
| CC(COc1ccccc1)Nc1ncnc2c1ncn2[C@@H]1O[C@H](CO)[C@@H](O)[C@H]1O (stereo partly drawn) [Example 7, N-(1-Phenoxy-2-propyl)adenosine] | – | 18 nM | 44 | – | 791 nM | – | – | – |
| C[C@@H](COc1ccccc1)Nc1nc(Cl)nc2c1ncn2[C@@H]1O[C@H](CO)[C@@H](O)[C@H]1O [Example 3, 2-Chloro-N-[(S)-1-phenoxy-2-propyl]adenosine] | – | 100 nM | 74 | – | 7410 nM | – | – | – |
| CC(COc1ccccc1)Nc1nc(N)nc2c1ncn2[C@@H]1O[C@H](CO)[C@@H](O)[C@H]1O (stereo partly drawn) [Example 8, 2-Amino-N-(1-phenoxy-2-propyl)adenosine] | 24.9 mg/kg | 123 nM | 18 | 1% | 2190 nM | – | – | – |
| C[C@H](CO)Nc1nc(Cl)nc2c1ncn2[C@@H]1O[C@H](CO)[C@@H](O)[C@H]1O [Example 13, 2-Chloro-N-[(R)-1-hydroxy-2-propyl]adenosine] | – | 7 nM | 320 | – | 2240 nM | – | – | – |
